Source: patent US20170313808A1, “BIOACTIVE POLYMERIC LIQUID FORMULATIONS OF ABSORBABLE, SEGMENTED APLIPHATIC POLYURETHANE COMPOSITIONS” (priority 2008, published 2017)

These molecules were tested on SKOV3 (assay: Testing with ovarian cancer cell lines (SKOV3)). Settings: ovarian cancer cell line SKOV3.
Assay type: cell-based

| Compound | Additional Uses and Properties |
| --- | --- |
| OC(Cn1cncn1)(Cn1cncn1)c1ccc(F)cc1F [Fluconazole] | Antineoplastic (as per testing |
| Cc1oncc1C(=O)Nc1ccc(C(F)(F)F)cc1 [Leflunomide] | Antineoplastic, as per testing |
| Clc1ccc(COC(Cn2ccnc2)c2ccc(Cl)cc2Cl)c(Cl)c1 (stereo not drawn) [Miconazole] | Antineoplastic (as per testing |
| CO[C@@]12[C@H](COC(N)=O)C3=C(C(=O)C(C)=C(N)C3=O)N1C[C@@H]1N[C@@H]12 [Mitomycin] | Antineoplastic, as per testing |

These molecules were tested on S aureous (assay: Antibacterial testing with S aureous). Settings: not given.
Assay type: cell-based

| Compound | Additional Uses and Properties |
| --- | --- |
| O=c1[nH]cc(F)c(=O)[nH]1 [5-Fluorouracil] | Antibacterial as per testing |
| CC(=O)O[C@H]1C(=O)[C@@]2(C)[C@H]([C@H](OC(=O)c3ccccc3)[C@]3(O)C[C@H](OC(=O)[C@H](O)[C@@H](NC(=O)c4ccccc4)c4ccccc4)C(C)=C1C3(C)C)[C@]1(OC(C)=O)CO[C@@H]1C[C@@H]2O [Paclitaxel] | Antibacterial as per testing |
